# Experimental data published in ChEMBL document CHEMBL4715887, “Synthesis of novel isoflavone/benzo-δ-sultam hybrids as potential anti-inflammatory drugs” (Bioorg Med Chem Lett, 2021).
# Active and inactive are the calls of the source. The calls are words filed in the database; no cut-off is given here.
# How the values were obtained:
# BV-2 [1] = assay: Cytotoxicity against mouse BV2 cells assessed as reduction in cell viability at 20 uM after 24 hrs by XTT assay; format: cell-based; conditions: bv-2, 24 h
# BV-2 [2] = assay: Antiinflammatory activity in mouse BV2 cells assessed as LPS-induced NO-production at 20 uM after 24 hrs by Griess reagent based assay relative to control; format: functional
# BV-2 [3] = assay: Antiinflammatory activity in mouse BV2 cells assessed as LPS-induced TNFalpha-production at 20 uM after 24 hrs by Griess reagent based assay relative to control; format: functional
# BV-2 [4] = assay: Antiinflammatory activity in mouse BV2 cells assessed as reduction in LPS-induced NO-production at 20 uM after 24 hrs by Griess reagent based assay relative to control; format: functional
# [5] = Cytotoxicity against mouse BV2 cells assessed as cell viability at 20 uM after 24 hrs by XTT assay relative to control; format: cell-based, BV-2; conditions: read-out: Activity
Structure (SMILES),Activity (BV-2 [1]),Activity (BV-2 [2]) [%],Activity (BV-2 [3]),inhibition (BV-2 [4]),inhibition at 20 µM (BV-2 [4]) [%],"viability at 24 h, 20 µM [5] [%]"
COc1ccc(CNS(=O)(=O)c2ccccc2I)cc1,Non-Toxic,–,–,–,–,–
COc1ccc2c(=O)c(-c3ccc(N)cc3)coc2c1,Non-Toxic,42,Active,–,–,–
O=S(=O)(Nc1ccccc1)c1ccccc1I,Non-Toxic,–,–,–,–,–
COc1ccc2c(=O)c(C#C[Si](C)(C)C)coc2c1,Non-Toxic,21,–,Active,–,–
COc1ccc2c(=O)c(C#Cc3ccccc3S(=O)(=O)Nc3ccccc3)coc2c1,Toxic,–,–,Active,–,–
COc1ccc2c(=O)c(I)coc2c1,Non-Toxic,21,26%,–,–,–
CNS(=O)(=O)c1ccccc1Br,Non-Toxic,–,–,–,–,–
COc1ccc2c(=O)c(-c3ccc(NS(=O)(=O)c4ccccc4C#Cc4ccccc4)cc3)coc2c1,Non-Toxic,–,–,Active,–,–
COc1ccc2c(=O)c(-c3ccc(N4C(c5ccccc5)=Cc5ccccc5S4(=O)=O)cc3)coc2c1,Toxic,–,–,Active,–,–
COc1ccc2c(=O)c(C3=Cc4ccccc4S(=O)(=O)N3C)coc2c1,Non-Toxic,–,–,Active,–,–
O=S(=O)(Nc1ccccc1)c1ccccc1Br,Non-Toxic,–,–,–,–,–
COc1ccc(CN2C(c3coc4cc(OC)ccc4c3=O)=Cc3ccccc3S2(=O)=O)cc1,Non-Toxic,41,34%,Active,–,–
COc1ccc(CNS(=O)(=O)c2ccccc2C#Cc2coc3cc(OC)ccc3c2=O)cc1,–,–,–,Active,–,–
COc1ccc2c(=O)c(-c3ccc([N+](=O)[O-])cc3)coc2c1,Non-Toxic,–,–,inactive,–,–
COc1ccc(-c2coc3cc(O)cc(O)c3c2=O)cc1 [BIOCHANIN],Non-Toxic,–,33%,–,41,76
COc1ccc2c(=O)c(C3=Cc4ccccc4S(=O)(=O)N3)coc2c1,Toxic,24,–,Active,–,–
CNS(=O)(=O)c1ccccc1I,Non-Toxic,–,–,–,–,–
COc1ccc2c(=O)c(-c3ccc(NS(=O)(=O)c4ccccc4Br)cc3)coc2c1,Non-Toxic,26,–,Active,–,–
COc1ccc2c(=O)c(C3=Cc4ccccc4S(=O)(=O)N3c3ccccc3)coc2c1,Non-Toxic,–,–,Active,–,–
C#Cc1coc2cc(OC)ccc2c1=O,–,–,–,–,–,49
O=c1c(-c2ccc(O)cc2)coc2cc(O)ccc12 [DAIDZEIN],Non-Toxic,–,–,–,35,> 80
